In one assay the target is human P2X3 receptor (Homo sapiens (Human), UniProt P56373). Briefly: Intracellular calcium measurement (FLIPR, Fluo-4) of antagonist activity at human P2X3 receptors. The conditions noted are these: read-out: hP2X3 IC50. The class given is cell-based. The gist of the method: (§1)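 Antagonism quantified from peak calcium fluorescence (Fluo-4, FLIPR, 90 sec read) evoked by EC80 α,β-Me-ATP, after a 30 min, 37° C. compound pretreatment in 1% DMSO. Human P2X3- or P2X2/3-expressing cells used; triplicate means fitted for IC50, percent maximal inhibition and Hill coefficient.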
Chain of human P2X3 receptor (P56373 whole entry): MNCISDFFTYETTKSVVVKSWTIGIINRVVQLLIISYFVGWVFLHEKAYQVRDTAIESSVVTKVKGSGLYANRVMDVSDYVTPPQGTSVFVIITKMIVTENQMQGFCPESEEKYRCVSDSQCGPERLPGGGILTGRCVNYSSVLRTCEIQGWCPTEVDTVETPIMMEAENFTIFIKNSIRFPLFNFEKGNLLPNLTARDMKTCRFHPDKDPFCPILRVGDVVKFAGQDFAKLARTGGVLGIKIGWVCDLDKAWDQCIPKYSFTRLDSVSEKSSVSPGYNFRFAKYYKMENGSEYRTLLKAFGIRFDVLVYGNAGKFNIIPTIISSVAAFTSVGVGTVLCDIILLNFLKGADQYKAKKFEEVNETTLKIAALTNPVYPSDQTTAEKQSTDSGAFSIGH

Another assay has as its target human P2X2/3 receptor (Homo sapiens (Human), UniProt P56373+Q9UBL9). The assay is described as follows: Intracellular calcium measurement (FLIPR, Fluo-4) of antagonist activity at human P2X2/3 receptors. The class given is cell-based. The gist of the method:
as §1

[1] abbreviates: human P2X3, FLIPR calcium assay, agonist α,β-Me-ATP.
Where [2] appears, read: human P2X2/3, FLIPR calcium assay, agonist α,β-Me-ATP, read-out: hP2X2/3 IC50.

IC50 data for 25 molecules are collected here from US10174016B2 (BAYER AKTIENGESELLSCHAFT, priority 2014, dated 2019).

Each structure is given as a SMILES string. Read-outs that look alike come from different tables or passages of the source.

Chain of human P2X2/3 receptor (P56373 whole entry): as above
Chain of human P2X2/3 receptor (Q9UBL9 whole entry): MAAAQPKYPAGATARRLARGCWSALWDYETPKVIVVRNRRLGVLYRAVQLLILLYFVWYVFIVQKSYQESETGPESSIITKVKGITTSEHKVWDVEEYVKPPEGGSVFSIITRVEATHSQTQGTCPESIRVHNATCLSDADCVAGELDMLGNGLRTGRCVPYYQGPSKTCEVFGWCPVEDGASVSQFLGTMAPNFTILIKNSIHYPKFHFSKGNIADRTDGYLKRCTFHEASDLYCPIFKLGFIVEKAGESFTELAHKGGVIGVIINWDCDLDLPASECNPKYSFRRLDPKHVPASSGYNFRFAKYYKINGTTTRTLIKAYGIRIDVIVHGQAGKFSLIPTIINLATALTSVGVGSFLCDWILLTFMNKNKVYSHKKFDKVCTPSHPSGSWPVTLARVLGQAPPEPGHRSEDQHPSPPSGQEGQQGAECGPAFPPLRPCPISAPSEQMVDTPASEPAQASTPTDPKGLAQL

In the case of `Cc1cnc(-c2cc(OCCn3cncn3)cc(C(=O)N[C@H](C)c3ccc(C(F)(F)F)nc3)c2)s1` [Example 160, 3-(5-methyl-1,3-thiazol-2-yl)-5-[2-(1H-1,2,4-triazol-1-yl)ethoxy]-N-{(1R)-1-[6-(trifluoromethyl)pyridin-3-yl]ethyl}benzamide], the values for the IC50 at human P2X3 receptor (setting [1]) and on human P2X2/3 receptor (setting [2]) were 28 nM and 1010 nM, respectively.

As to `Cc1cnc(-c2cc(OC3COC3)cc(C(=O)N[C@H](C)c3ccc(C(F)(F)F)nn3)c2)s1` [Example 161, 3-(5-methyl-1,3-thiazol-2-yl)-5-(oxetan-3-yloxy)-N-{(1R)-1-[6-(trifluoromethyl)pyridazin-3-yl]ethyl}benzamide], the values for the IC50 on human P2X3 receptor (setting [1]) and on human P2X2/3 receptor (setting [2]) were 32 nM and 632 nM, respectively.

Take `Cc1cnc(-c2cc(OC3COC3)cc(C(=O)N[C@H](C)c3ccc(C(F)F)nc3)c2)s1` [Example 164]: the IC50 is 60 nM on human P2X3 receptor (setting [1]) and 1110 nM at human P2X2/3 receptor (setting [2]).

In the case of `Cc1cnc(-c2cc(O[C@H]3C[C@H](N(C)C)C3)cc(C(=O)N[C@H](C)c3cnc(C(F)(F)F)nc3)c2)s1` [Example 165, 3-{[trans-3-(dimethylamino)cyclobutyl]oxy}-5-(5-methyl-1,3-thiazol-2-yl)-N-{(1R)-1-[2-(trifluoromethyl)pyrimidin-5-yl]ethyl}benzamide], the IC50 worked out at 81 nM at human P2X3 receptor (setting [1]) and 1920 nM on human P2X2/3 receptor (setting [2]).

Take `Cc1cnc(-c2cc(O[C@@H]3CCOC3)cc(C(=O)NCc3cnc(C(F)(F)F)nc3)c2)s1` [Example 166, 3-(5-methyl-1,3-thiazol-2-yl)-5-[(3R)-tetrahydrofuran-3-yloxy]-N-{[2-(trifluoromethyl)pyrimidin-5-yl]methyl}benzamide]: the IC50 came to 40 nM at human P2X3 receptor (setting [1]) and 461 nM on human P2X2/3 receptor (setting [2]).

With `Cc1cnc(-c2cc(OC3COC3)cc(C(=O)NCc3cnc(C(F)(F)F)nc3)c2)s1` [Example 167, 3-(5-methyl-1,3-thiazol-2-yl)-5-(oxetan-3-yloxy)-N-{[2-(trifluoromethyl)pyrimidin-5-yl]methyl}benzamide], the values for the IC50 at human P2X3 receptor (setting [1]) and at human P2X2/3 receptor (setting [2]) were 72 nM and 893 nM, respectively.

With `Cc1cnc(-c2cc(O[C@H]3CN4CCC3CC4)cc(C(=O)N[C@H](C)c3cnc(C(F)(F)F)nc3)c2)s1` [Example 168, 3-[(3R)-1-azabicyclo[2.2.2]oct-3-yloxy]-5-(5-methyl-1,3-thiazol-2-yl)-N-{(1R)-1-[2-(trifluoromethyl)pyrimidin-5-yl]ethyl}benzamide], the values for the IC50 on human P2X3 receptor and at human P2X2/3 receptor (hP2X2/3 IC50 (nM)) were 19 nM and 1600 nM, respectively.

Take `CCc1cnc(-c2cc(OC3COC3)cc(C(=O)N[C@H](C)c3cnc(C(F)(F)F)nc3)c2)s1` [Example 169, 3-(5-ethyl-1,3-thiazol-2-yl)-5-(oxetan-3-yloxy)-N-{(1R)-1-[2-(trifluoromethyl)pyrimidin-5-yl]ethyl}benzamide]: the IC50 was 9 nM at human P2X3 receptor (setting [1]) and 70 nM at human P2X2/3 receptor (setting [2]).

`Cc1ccc(Oc2cc(C(=O)N[C@H](C)c3cnc(C(F)(F)F)nc3)cc(-c3ncc(C)s3)c2)nn1` [Example 170, 3-[(6-methylpyridazin-3-yl)oxy]-5-(5-methyl-1,3-thiazol-2-yl)-N-{(1R)-1-[2-(trifluoromethyl)pyrimidin-5-yl]ethyl}benzamide]: the IC50 at human P2X3 receptor (setting [1]) is 165 nM; at human P2X2/3 receptor (setting [2]) it was 2020 nM.

For the molecule `Cc1cnc(-c2cc(O[C@@H]3CCOC3)cc(C(=O)N[C@H](C)c3ccc(C(F)F)nc3)c2)s1` [Example 171, N-{(1R)-1-[6-(difluoromethyl)pyridin-3-yl]ethyl}-3-(5-methyl-1,3-thiazol-2-yl)-5-[(3R)-tetrahydrofuran-3-yloxy]benzamide], the figures for the IC50 at human P2X3 receptor (setting [1]) and at human P2X2/3 receptor (setting [2]) were 26 nM and 573 nM, respectively.

With `Cc1cnc(-c2cc(O[C@H]3CN4CCC3CC4)cc(C(=O)N[C@H](C)c3ccc(C(F)(F)F)nc3)c2)s1` [Example 172, 3-[(3R)-1-azabicyclo[2.2.2]oct-3-yloxy]-5-(5-methyl-1,3-thiazol-2-yl)-N-{(1R)-1-[6-(trifluoromethyl)pyridin-3-yl]ethyl}benzamide], the IC50 at human P2X3 receptor was 31 nM; at human P2X2/3 receptor (hP2X2/3 IC50 (nM)) it was 2110 nM.

In the case of `CCc1cnc(-c2cc(O[C@@H]3CN4CCC3CC4)cc(C(=O)N[C@H](C)c3cnc(C(F)(F)F)nc3)c2)s1` [Example 173, 3-[(3S)-1-azabicyclo[2.2.2]oct-3-yloxy]-5-(5-ethyl-1,3-thiazol-2-yl)-N-{(1R)-1-[2-(trifluoromethyl)pyrimidin-5-yl]ethyl}benzamide], the IC50 on human P2X3 receptor came to 5 nM; at human P2X2/3 receptor (hP2X2/3 IC50 (nM)) it was 311 nM.

With `CCc1cnc(-c2cc(O[C@H]3CN4CCC3CC4)cc(C(=O)N[C@H](C)c3cnc(C(F)(F)F)nc3)c2)s1` [Example 174, 3-[(3R)-1-azabicyclo[2.2.2]oct-3-yloxy]-5-(5-ethyl-1,3-thiazol-2-yl)-N-{(1R)-1-[2-(trifluoromethyl)pyrimidin-5-yl]ethyl}benzamide], the IC50 at human P2X3 receptor amounted to 11 nM; at human P2X2/3 receptor (hP2X2/3 IC50 (nM)), 790 nM.

Consider `Cc1cnc(-c2cc(O[C@@H]3CN4CCC3CC4)cc(C(=O)N[C@H](C)c3ccc(C(F)(F)F)nc3)c2)s1` [Example 175, 3-[(3S)-1-azabicyclo[2.2.2]oct-3-yloxy]-5-(5-methyl-1,3-thiazol-2-yl)-N-{(1R)-1-[6-(trifluoromethyl)pyridin-3-yl]ethyl}benzamide], for which the IC50 on human P2X3 receptor was determined as 23 nM; at human P2X2/3 receptor (hP2X2/3 IC50 (nM)), 1270 nM.

In the case of `Cc1cnc(-c2cc(Oc3nnc(C)s3)cc(C(=O)N[C@H](C)c3ccc(C(F)(F)F)nc3)c2)s1` [Example 176, 3-[(5-methyl-1,3,4-thiadiazol-2-yl)oxy]-5-(5-methyl-1,3-thiazol-2-yl)-N-{(1R)-1-[6-(trifluoromethyl)pyridin-3-yl]ethyl}benzamide], the IC50 at human P2X3 receptor (setting [1]) was 29 nM; on human P2X2/3 receptor (setting [2]), 607 nM.

Turning to `Cc1cnc(-c2cc(OC[C@H]3COCCO3)cc(C(=O)N[C@H](C)c3cnc(C(F)(F)F)nc3)c2)s1` [Example 178, 3-[(2R)-1,4-dioxan-2-ylmethoxy]-5-(5-methyl-1,3-thiazol-2-yl)-N-{(1R)-1-[2-(trifluoromethyl)pyrimidin-5-yl]ethyl}benzamide], the IC50 was determined as 39 nM at human P2X3 receptor (setting [1]) and 1880 nM at human P2X2/3 receptor (setting [2]).

Regarding `Cc1cnc(-c2cc(OC[C@H]3COCCO3)cc(C(=O)N[C@H](C)c3ccc(C(F)(F)F)nn3)c2)s1` [Example 179, 3-[(2R)-1,4-dioxan-2-ylmethoxy]-5-(5-methyl-1,3-thiazol-2-yl)-N-{(1R)-1-[6-(trifluoromethyl)pyridazin-3-yl]ethyl} benzamide], the values for the IC50 at human P2X3 receptor (setting [1]) and at human P2X2/3 receptor (setting [2]) were 13 nM and 703 nM, respectively.

Take `Cc1cnc(-c2cc(OC[C@@H]3COCCO3)cc(C(=O)N[C@H](C)c3ccc(C(F)(F)F)nc3)c2)s1` [Example 180, 3-[(2S)-1,4-dioxan-2-ylmethoxy]-5-(5-methyl-1,3-thiazol-2-yl)-N-{(1R)-1-[6-(trifluoromethyl)pyridin-3-yl]ethyl}benzamide]: the IC50 on human P2X3 receptor (setting [1]) was 31 nM; at human P2X2/3 receptor (setting [2]), 1400 nM.

Turning to `Cc1cnc(-c2cc(OC[C@@H]3COCCO3)cc(C(=O)N[C@H](C)c3cnc(C(F)(F)F)nc3)c2)s1` [Example 181, 3-[(2S)-1,4-dioxan-2-ylmethoxy]-5-(5-methyl-1,3-thiazol-2-yl)-N-{(1R)-1-[2-(trifluoromethyl)pyrimidin-5-yl]ethyl}benzamide], the values for the IC50 on human P2X3 receptor (setting [1]) and on human P2X2/3 receptor (setting [2]) were 19 nM and 1180 nM, respectively.

With `Cc1cnc(-c2cc(OC[C@@H]3COCCO3)cc(C(=O)N[C@H](C)c3ccc(C(F)(F)F)nn3)c2)s1` [Example 182, 3-[(2S)-1,4-dioxan-2-ylmethoxy]-5-(5-methyl-1,3-thiazol-2-yl)-N-{(1R)-1-[6-(trifluoromethyl)pyridazin-3-yl]ethyl}benzamide], the IC50 on human P2X3 receptor (setting [1]) was 63 nM; at human P2X2/3 receptor (setting [2]) it was 1940 nM.

For `Cc1cnc(-c2cc(O[C@@H]3CCCN(C(=O)OC(C)(C)C)C3)cc(C(=O)N[C@H](C)c3cnc(C(F)(F)F)nc3)c2)s1` [Example 190, tert-Butyl (3R)-3-[3-(5-methyl-1,3-thiazol-2-yl)-5-({(1R)-1-[2-(trifluoromethyl)pyrimidin-5-yl]ethyl}carbamoyl)phenoxy]piperidine-1-carboxylate], the IC50 was 7 nM at human P2X3 receptor (setting [1]) and 207 nM at human P2X2/3 receptor (setting [2]).

As for `CC#CCOc1cc(C(=O)N[C@H](C)c2ccc(C)nn2)cc(-c2ncc(C)s2)c1` [Example 191, 3-(but-2-yn-1-yloxy)-N-[(1R)-1-(6-methylpyridazin-3-yl)ethyl]-5-(5-methyl-1,3-thiazol-2-yl) benzamide], the IC50 at human P2X3 receptor (setting [1]) worked out at 61 nM; on human P2X2/3 receptor (setting [2]) it was 364 nM.

Consider `Cc1cnc(-c2cc(O[C@@H]3CN4CCC3CC4)cc(C(=O)N[C@H](C)c3cnc(C(F)(F)F)nc3)c2)s1` [Example 192, 3-[(3S)-1-azabicyclo[2.2.2]oct-3-yloxy]-5-(5-methyl-1,3-thiazol-2-yl)-N-{(1R)-1-[2-(trifluoromethyl)pyrimidin-5-yl]ethyl} benzamide], for which the results for the IC50 on human P2X3 receptor and on human P2X2/3 receptor (hP2X2/3 IC50 (nM)) were 12 nM and 910 nM, respectively.

Turning to `Cc1cnc(-c2cc(OC3CCNCC3)cc(C(=O)N[C@H](C)c3ccc(C(F)(F)F)nn3)c2)s1` [Example 201, 3-(5-methyl-1,3-thiazol-2-yl)-5-(piperidin-4-yloxy)-N-{(1R)-1-[6-(trifluoromethyl)pyridazin-3-yl]ethyl}benzamide], the IC50 on human P2X3 receptor (setting [1]) was found to be 16 nM; on human P2X2/3 receptor (setting [2]) it was 1850 nM.

Regarding `Cc1cnc(-c2cc(OC3CC4(CNC4)C3)cc(C(=O)N[C@H](C)c3cnc(C(F)(F)F)nc3)c2)s1` [Example 202, 3-(2-azaspiro[3.3]hept-6-yloxy)-5-(5-methyl-1,3-thiazol-2-yl)-N-{(1R)-1-[2-(trifluoromethyl)pyrimidin-5-yl]ethyl} benzamide], the IC50 on human P2X3 receptor (setting [1]) was found to be 42 nM; at human P2X2/3 receptor (setting [2]), 1710 nM.
